Biological target: Gastrin-releasing peptide receptor (Homo sapiens, UniProt P30550)
Assay: Displacement of [125I-Tyr4]BN form BB2 receptor in human PC3 cells
Assay type: cell-based, PC-3

Gastrin-releasing peptide receptor, sequence (P30550 whole entry): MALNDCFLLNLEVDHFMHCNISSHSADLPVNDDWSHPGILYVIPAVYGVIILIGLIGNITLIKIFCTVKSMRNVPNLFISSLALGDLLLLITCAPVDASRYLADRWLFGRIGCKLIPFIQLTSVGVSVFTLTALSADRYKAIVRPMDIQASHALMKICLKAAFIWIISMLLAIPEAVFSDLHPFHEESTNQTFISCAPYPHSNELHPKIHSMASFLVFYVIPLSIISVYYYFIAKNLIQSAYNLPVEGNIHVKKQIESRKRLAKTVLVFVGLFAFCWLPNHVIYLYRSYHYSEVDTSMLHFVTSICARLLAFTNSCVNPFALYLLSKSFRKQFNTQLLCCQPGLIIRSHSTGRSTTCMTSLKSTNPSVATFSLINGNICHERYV

Row | IC50 | SMILES
1 | 0.59 nM | CSCC[C@H](NC(=O)[C@H](CC(C)C)NC(=O)[C@H](Cc1cnc[nH]1)NC(=O)CNC(=O)[C@@H](NC(=O)[C@H](C)NC(=O)[C@H](Cc1c[nH]c2ccccc12)NC(=O)[C@H](CCC(N)=O)NC(=O)[C@H](CC(N)=O)NC(=O)CNC(=O)[C@H](CC(C)C)NC(=O)[C@H](CCCNC(=N)N)NC(=O)[C@H](CCC(N)=O)NC(=O)CCCCCNC(=O)[C@H](CS)NC(=O)CNC(=O)CN)C(C)C)C(N)=O
2 | 1.45 nM | CSCC[C@H](NC(=O)[C@H](CC(C)C)NC(=O)[C@H](Cc1cnc[nH]1)NC(=O)CNC(=O)[C@@H](NC(=O)[C@H](C)NC(=O)[C@H](Cc1c[nH]c2ccccc12)NC(=O)[C@H](CCC(N)=O)NC(=O)CCCCCNC(=O)[C@H](CS)NC(=O)CNC(=O)CN)C(C)C)C(N)=O

From ChEMBL document CHEMBL1137776, “Structural assessment and biological evaluation of two N3S bombesin derivatives” (J Med Chem, 2009)
